Measurements taken from patent publication US20190391160A1 (INSTITUT PASTEUR, published 2019).
“Also recorded” adds a separate entry of the source.

Legend:
ΔF508-NBD1 of CFTR = ΔF508-NBD1 of CFTR (Homo sapiens, UniProt P13569, DEL508-508); format: binding
[1] = biological target: CFTR (WT-CFTR) Cl− channel (Homo sapiens, UniProt P13569); format: cell-based
[2] = test system: cAMP-dependent Cl− short-circuit current of mouse colon tissue; details: 100 μM bumetanide, basolateral side
Method: Mice were 32 to 38 weeks old and weighed 23 to 36 g. Pups were weaned at 21 days and fed solid mouse chow (Teklad 2018S, Harland). All mice were allowed food and water ad libitum until the time of sacrifice by cervical dislocation. Colons were dissected, cut in 4 pieces from rectum to lower intestine. The fragments from colon were introduced immediately into Ussing chambers for subsequent short-circuit experiments.
Transepithelial transport measurements were performed as described previously^33 in the short-circuit mode (6 mice and 17 tissus). […] The excised colon were stripped of external muscle layers and mounted in Ussing chambers (0.018 cm^2 aperture). Hemichambers were connected to a DVC-1000 voltage clamp (World Precision Instruments, Inc., Sarasota, Fla.) via Ag/AgCl electrodes and 3 M KCl agar bridges for recording of short-circuit current. Currents were stored on a computer using analog-to-digital converter (PowerLab) and LabChart software 5.0. Prior to the experiment, prostaglandin generation was blocked with 10 μM indomethacin on the apical and basolateral sides (incubation of tissue for 30 min before the beginning of the experiment). Transepithelial Isc was calculated as μEq cm^−2 tissue surface area. The apical and basolateral solutions contained (in mM): 116 NaCl, 25 NaHCO3, 1.2 CaCl2, 1.2 MgCl2, 2,4 […], 0,4 KH2PO4, 10 glucose and was gassed with 95% O2-5% CO2 (pH 7.4).

ΔF508-CFTR = ΔF508-CFTR (Homo sapiens, UniProt P13569, DEL508-508); format: cell-based; details: after corrector and CB; inh172 and glibenclamide as a mixture
CFTR channels (WT-CFTR) = CFTR channels (WT-CFTR) (Homo sapiens, UniProt P13569); format: cell-based; details: 100 μM glibenclamide and 10 μM inh172
Source text: HeLa cells stably transfected with WT-CFTR were kindly provided by Pascale Fanen (INSERM U955, Créteil, France). The intracellular side of the membrane patch was exposed to a solution containing (in mM): 150 N-methyl-D-gluconate chloride (NMDG-Cl), 0.5 MgCl2, 2 EGTA, 10 HEPES, 10 glucose, pH 7.4, adjusted to pH 7.4 with NMDG. The patch pipettes were filled with (in mM): 150 NMDG-Cl, 0.5 MgCl2, 2 EGTA, 10 HEPES, 10 glucose, 1 ATP-Mg adjusted to pH 7.4 with NMDG. CFTR channels were activated by addition of 40 nM PKA+1 mM ATP-Mg at the intracellular side of the patches. The presence of CFTR channels was verified by addition of 100 μM glibenclamide and 10 μM inh172. The effect of CB was tested by perfusion of 1 nM of CB in the intracellular solution in the presence of 40 nM PKA+0.05, 0.5, or 1 mM ATP-Mg. The currents were recorded as previously described^34. […] Currents were recorded with Bio-logic RK 400 patch-clamp amplifiers (Bio-Logic, Claix, France), monitored using PClamp9 software (Axon Instruments, Foster City, Calif., USA) and stored on a computer. […] We calculated channel activity (NPo) as <I>/i, where <I> is the time-averaged current passing through the channels on the patch with the closed current level as reference and i is the unit current amplitude.

[3] = biological target: human ΔF508-NBD1 (NBD1 domain of CFTR with deletion of Phe508) (human, UniProt P13569 389-678)
[4] = biological target: recombinant, purified human NBD1 (nucleotide binding domain 1) of CFTR, wild type (human, UniProt P13569 389-678)
recombinant, purified human NBD1 (nucleotide binding domain 1) of CFTR, wild type, sequence (P13569 389-678 limits assumed): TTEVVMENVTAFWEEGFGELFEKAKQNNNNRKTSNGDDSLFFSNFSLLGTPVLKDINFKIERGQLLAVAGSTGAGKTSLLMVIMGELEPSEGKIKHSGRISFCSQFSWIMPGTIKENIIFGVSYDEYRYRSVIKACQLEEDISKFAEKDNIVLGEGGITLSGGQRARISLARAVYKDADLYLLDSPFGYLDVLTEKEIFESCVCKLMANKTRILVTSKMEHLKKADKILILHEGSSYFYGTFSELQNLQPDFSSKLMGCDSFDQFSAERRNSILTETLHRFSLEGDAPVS

human ΔF508-NBD1 (NBD1 domain of CFTR with deletion of Phe508), sequence (P13569 other isoform, or with tags, fused parts or gaps mutant limits assumed): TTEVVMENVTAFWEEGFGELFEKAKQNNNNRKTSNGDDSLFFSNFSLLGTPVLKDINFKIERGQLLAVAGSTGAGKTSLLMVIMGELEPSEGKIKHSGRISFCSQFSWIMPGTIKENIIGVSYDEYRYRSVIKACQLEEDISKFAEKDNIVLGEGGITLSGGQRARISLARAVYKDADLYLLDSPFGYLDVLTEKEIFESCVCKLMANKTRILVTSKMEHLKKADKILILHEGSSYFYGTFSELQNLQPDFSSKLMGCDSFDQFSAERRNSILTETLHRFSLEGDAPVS
ΔF508-NBD1 of CFTR, sequence (P13569 with tags, fused parts or gaps DEL508-508 limits assumed): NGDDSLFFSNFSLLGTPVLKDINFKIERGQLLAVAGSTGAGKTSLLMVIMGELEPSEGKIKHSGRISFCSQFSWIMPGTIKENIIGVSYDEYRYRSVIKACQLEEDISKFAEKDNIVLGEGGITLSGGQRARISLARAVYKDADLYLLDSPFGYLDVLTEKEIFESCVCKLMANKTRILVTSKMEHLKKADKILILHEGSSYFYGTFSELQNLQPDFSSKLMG
ΔF508-CFTR, sequence (P13569 with tags, fused parts or gaps DEL508-508): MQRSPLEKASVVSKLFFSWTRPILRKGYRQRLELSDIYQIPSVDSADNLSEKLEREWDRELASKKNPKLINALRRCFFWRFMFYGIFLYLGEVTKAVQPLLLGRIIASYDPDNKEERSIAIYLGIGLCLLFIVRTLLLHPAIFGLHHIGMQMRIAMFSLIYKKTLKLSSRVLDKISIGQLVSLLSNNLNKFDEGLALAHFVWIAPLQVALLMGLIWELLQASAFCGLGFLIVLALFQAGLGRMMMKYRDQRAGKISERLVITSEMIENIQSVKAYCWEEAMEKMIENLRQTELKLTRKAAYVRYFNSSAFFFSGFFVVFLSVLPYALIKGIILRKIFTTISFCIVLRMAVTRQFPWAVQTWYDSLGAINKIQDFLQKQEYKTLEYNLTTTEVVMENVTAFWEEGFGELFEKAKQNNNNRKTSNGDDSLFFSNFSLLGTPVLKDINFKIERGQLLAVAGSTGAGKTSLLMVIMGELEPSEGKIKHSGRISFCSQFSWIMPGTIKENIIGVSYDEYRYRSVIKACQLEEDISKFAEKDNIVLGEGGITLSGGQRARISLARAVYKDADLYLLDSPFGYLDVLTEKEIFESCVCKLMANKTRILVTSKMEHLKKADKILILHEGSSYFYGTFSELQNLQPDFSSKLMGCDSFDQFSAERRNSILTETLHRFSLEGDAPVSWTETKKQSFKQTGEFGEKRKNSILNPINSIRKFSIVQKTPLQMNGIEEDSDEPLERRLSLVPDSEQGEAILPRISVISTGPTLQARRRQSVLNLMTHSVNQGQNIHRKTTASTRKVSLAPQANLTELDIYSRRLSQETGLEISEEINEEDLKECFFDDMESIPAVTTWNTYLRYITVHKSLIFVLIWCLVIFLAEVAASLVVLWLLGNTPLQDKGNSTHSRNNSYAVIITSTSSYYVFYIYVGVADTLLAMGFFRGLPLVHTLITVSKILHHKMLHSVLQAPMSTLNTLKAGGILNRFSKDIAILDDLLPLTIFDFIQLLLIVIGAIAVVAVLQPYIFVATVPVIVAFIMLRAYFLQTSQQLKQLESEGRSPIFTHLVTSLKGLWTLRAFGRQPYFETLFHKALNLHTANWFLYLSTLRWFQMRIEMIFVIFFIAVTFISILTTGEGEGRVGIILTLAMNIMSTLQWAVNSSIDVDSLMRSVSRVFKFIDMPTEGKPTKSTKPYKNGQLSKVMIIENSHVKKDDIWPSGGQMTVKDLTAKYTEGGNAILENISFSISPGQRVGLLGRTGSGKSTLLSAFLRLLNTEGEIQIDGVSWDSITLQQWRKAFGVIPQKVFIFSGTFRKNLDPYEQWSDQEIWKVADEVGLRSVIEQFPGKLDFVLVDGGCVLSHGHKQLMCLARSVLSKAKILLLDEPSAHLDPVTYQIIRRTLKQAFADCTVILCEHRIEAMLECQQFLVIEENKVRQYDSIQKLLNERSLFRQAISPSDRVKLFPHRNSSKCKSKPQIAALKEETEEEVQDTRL
CFTR (WT-CFTR) Cl− channel, sequence (P13569 whole entry): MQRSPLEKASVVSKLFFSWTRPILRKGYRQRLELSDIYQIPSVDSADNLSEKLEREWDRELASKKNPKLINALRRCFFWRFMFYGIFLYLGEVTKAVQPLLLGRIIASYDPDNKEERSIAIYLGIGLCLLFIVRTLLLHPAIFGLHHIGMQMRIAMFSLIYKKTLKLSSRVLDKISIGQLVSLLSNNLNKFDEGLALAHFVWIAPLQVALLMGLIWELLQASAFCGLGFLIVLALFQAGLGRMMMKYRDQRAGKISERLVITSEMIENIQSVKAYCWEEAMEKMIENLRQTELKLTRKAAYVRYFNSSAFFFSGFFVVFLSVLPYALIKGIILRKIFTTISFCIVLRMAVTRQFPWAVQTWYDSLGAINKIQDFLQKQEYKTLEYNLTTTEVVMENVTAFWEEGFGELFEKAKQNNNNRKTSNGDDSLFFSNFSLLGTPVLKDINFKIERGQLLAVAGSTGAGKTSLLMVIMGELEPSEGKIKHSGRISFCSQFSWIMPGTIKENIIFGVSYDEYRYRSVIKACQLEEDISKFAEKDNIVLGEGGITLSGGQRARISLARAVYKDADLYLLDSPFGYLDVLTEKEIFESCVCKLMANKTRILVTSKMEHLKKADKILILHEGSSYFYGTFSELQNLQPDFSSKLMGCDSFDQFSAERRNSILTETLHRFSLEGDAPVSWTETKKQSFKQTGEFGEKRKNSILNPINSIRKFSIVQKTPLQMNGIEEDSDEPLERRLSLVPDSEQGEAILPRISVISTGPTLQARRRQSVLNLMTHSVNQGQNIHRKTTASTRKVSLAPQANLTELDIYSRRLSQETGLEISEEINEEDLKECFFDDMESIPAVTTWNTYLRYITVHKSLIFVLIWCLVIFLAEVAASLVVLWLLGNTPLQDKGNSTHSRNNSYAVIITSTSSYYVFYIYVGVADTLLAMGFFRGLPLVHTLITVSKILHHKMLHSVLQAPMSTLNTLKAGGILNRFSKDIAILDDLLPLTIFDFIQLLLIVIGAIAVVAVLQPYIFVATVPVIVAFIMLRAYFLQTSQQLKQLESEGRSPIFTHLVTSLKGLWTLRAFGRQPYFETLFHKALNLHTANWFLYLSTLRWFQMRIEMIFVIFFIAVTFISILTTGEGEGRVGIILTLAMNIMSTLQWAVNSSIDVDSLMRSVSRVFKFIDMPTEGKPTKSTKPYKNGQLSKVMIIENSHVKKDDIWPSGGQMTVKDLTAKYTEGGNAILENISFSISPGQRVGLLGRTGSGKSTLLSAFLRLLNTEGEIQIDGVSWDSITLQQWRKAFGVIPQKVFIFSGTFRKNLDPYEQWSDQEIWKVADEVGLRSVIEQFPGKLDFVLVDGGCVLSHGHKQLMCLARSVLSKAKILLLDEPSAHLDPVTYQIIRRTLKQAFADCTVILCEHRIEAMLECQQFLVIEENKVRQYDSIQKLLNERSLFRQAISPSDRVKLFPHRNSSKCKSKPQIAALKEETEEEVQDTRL
CFTR channels (WT-CFTR), sequence (P13569 whole entry, the tested form may be a part): as the sequence (P13569 whole entry) above

NAVPFYAFYGCYCGWGGQ
Cl− channel current (Cl— channel current): increased; also recorded: increases Cl— channel current
binding of peptide to mutated NBD1 (ΔF508-NBD1 of CFTR): has shown interaction; also recorded: interacts with ΔF508-NBD1

CCCCC/C=C\C/C=C\C/C=C\C/C=C\CCCC(=O)O [arachidonic acid]
effect on IcAMP (CFTR-Cl− current) [1]: no effect on IcAMP

CCCCNc1cc(C(=O)O)cc(S(N)(=O)=O)c1Oc1ccccc1 [bumetanide]
inhibition of the CB-induced Isc increase [2]: inhibited

glyH101
inhibition of the CB-potentiated current (ΔF508-CFTR): inhibited

COc1ccc(Cl)cc1C(=O)NCCc1ccc(S(=O)(=O)NC(=O)NC2CCCCC2)cc1 [glibenclamide]
inhibition of the activated channels (CFTR channels (WT-CFTR)): inhibited
inhibition of the CB-potentiated current (ΔF508-CFTR): only slightly

B1: recombinant human non-pancreatic secreted phospholipase A2 group IIA (enzyme, UniProt P14555 21-144, looked up)
chain: NLVNFHRMIKLTTGKEAALSYGFYGCHCGVGGRGSPKDATDRCCVTHDCCYKRLEKRGCGTKFLSYKFSNSGSRITCAKQDSCRSQLCECDKAAATCFARNKTTYNKKYQYYSNKHCRGSTPRC
Kd [3]: 37 nM
koff [3]: 0.0066 s⁻¹
kon [3]: 180000 M⁻¹ s⁻¹
Kd [4]: 35 nM
koff [4]: 0.0021 s⁻¹
kon [4]: 59000 M⁻¹ s⁻¹
